Data on 19 compounds can be found in patent US20140357579A1, “SYNTHETIC PEPTIDE AMIDES AND DIMERS THEREOF” (priority 2006, published 2014).

Like-named read-outs stand apart in the source and are kept apart here. Bridge positions count the residues as written; N and C are the ends. Square brackets hold non-standard residues; d marks the D form. Side chains are listed from the residue outwards. Peptide text beside a SMILES is read from it. I, II: the chains in the order shown. dAgb = N=C(N)NCC[C@@H](N)C(=O)O; dAgp = N=C(N)NC[C@@H](N)C(=O)O; dNle = CCCC[C@@H](N)C(=O)O; dOrn = NCCC[C@@H](N)C(=O)O; Api = NC1(C(=O)O)CCNCC1

The target in experiment [1] is T1, mouse kappa opioid receptor (mKOR) (Mus musculus, UniProt P33534).
T1 construct: a mouse thymoma cell line that expresses only the kappa-opioid receptor and no other opioid receptor subtype; host or cells: R1.G1 mouse thymoma cells
T1 sequence (P33534 whole entry): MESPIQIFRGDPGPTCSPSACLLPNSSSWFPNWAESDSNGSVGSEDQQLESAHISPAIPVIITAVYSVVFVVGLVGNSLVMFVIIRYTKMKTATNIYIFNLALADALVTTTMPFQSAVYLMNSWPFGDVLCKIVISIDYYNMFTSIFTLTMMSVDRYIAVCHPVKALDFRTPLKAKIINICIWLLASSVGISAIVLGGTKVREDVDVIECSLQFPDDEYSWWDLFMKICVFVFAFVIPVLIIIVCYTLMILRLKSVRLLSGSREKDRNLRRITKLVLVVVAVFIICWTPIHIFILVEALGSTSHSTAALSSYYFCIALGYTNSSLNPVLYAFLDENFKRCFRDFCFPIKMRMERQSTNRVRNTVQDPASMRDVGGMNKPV
Kind of experiment: Inhibition of forskolin-stimulated cAMP production in R1.G1 cells (TR-FRET cAMP immunoassay). It counts as cell-based. The following applies: for EC50: inhibition of forskolin-stimulated cAMP. A general note: cAMP levels reflect the balance of adenylyl cyclase and phosphodiesterase activity.

For experiment [2], the target named is T2, human kappa opioid receptor (hKOR) (Homo sapiens, UniProt P41145).
T2 construct: expressed in transfected cells; host or cells: HEK-293 cells (ATCC), transient transfection with pcDNA3-hOPRK1
T2 sequence (P41145 whole entry): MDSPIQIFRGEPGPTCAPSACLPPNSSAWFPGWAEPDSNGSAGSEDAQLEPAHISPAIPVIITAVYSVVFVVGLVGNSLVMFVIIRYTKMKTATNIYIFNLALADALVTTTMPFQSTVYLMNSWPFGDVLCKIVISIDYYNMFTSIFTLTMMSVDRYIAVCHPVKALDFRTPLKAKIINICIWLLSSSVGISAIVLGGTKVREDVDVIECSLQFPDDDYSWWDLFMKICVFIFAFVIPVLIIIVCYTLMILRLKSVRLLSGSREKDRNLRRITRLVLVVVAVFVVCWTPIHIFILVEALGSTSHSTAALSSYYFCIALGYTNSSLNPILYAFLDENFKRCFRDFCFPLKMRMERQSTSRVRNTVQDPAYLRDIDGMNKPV
Kind of experiment: NFAT-luciferase reporter assay in HEK-293 cells transfected with human kappa opioid receptor and chimeric G-protein. The format is cell-based. Background: A reporter such as luciferase makes a cellular process visible.

[3] abbreviates: percent maximal activation compared to full induction by known kappa agonists.
Where [4] appears, read: read-out: mKOR Efficacy(%), R1.G1 cells.
Where [5] appears, read: R1.G1 cells, read-out: mKOR EC50.
Where [6] appears, read: R1.G1 cells, read-out: mKOR Efficacy(%).

The term EC50 denotes the concentration at which the effect is half-maximal.

Take `CC(C)C[C@@H](NC(=O)[C@@H](Cc1ccccc1)NC(=O)[C@H](N)Cc1ccccc1)C(=O)N[C@H](CCCNC(C)C)C(=O)N1CCC(N)(C(=O)O)CC1` [Compound 20, D-Phe-D-Phe-D-Leu-(δ-iPr)D-Orn-[omega(4-Aminopiperidine-4-carboxylic acid)]-OH]: the “mKOR Efficacy(%)” value in experiment [1] (R1.G1 cells) is 92%. The Emax in experiment [2] (HEK293, percent maximal activation compared to full induction by known kappa agonists, read-out: hKOR Efficacy(%)) worked out at 97%. In addition, the EC50 in experiment [2] (transfected HEK-293 cells, luciferase reporter, read-out: hKOR EC50) came to 0.15 nM.
For the compound `CC(C)C[C@@H](NC(=O)[C@@H](Cc1ccccc1)NC(=O)[C@H](N)Cc1ccccc1)C(=O)N[C@H](CCCCN)C(=O)N1CCN(S(=O)(=O)c2ccccc2)CC1` [Compound 32, D-Phe-D-Phe-D-Leu-D-Lys-[1-(phenylsulfonyl)piperazine amide]], the “mKOR Efficacy(%)” value in experiment [1] (R1.G1 cells) is listed as 87%. The “hKOR Efficacy(%)” value in experiment [2] (setting [3]) came out at 101%.
On to `CC(C)C[C@@H](NC(=O)[C@@H](Cc1ccccc1)NC(=O)[C@H](N)Cc1ccccc1)C(=O)N[C@H](CCCCN)C(=O)N1CCN(c2ccccn2)CC1` [Compound 28, D-Phe-D-Phe-D-Leu-D-Lys-[1-(pyridin-2-yl)piperazine amide]], for which the “mKOR Efficacy(%)” value in experiment [1] (R1.G1 cells) is reported as 89%. In addition, the “hKOR Efficacy(%)” value in experiment [2] (setting [3]) stood at 100%.
The corresponding values for `CC(C)C[C@@H](NC(=O)[C@@H](Cc1ccccc1)NC(=O)[C@H](N)Cc1ccccc1)C(=O)N[C@H](CCCCN)C(=O)NCc1ccc(C(F)(F)F)nc1` [Compound 35, D-Phe-D-Phe-D-Leu-D-Lys-[6-trifluoromethyl-3-aminomethylpyridine amide]] are 85% and 95%.
Regarding `CC(C)C[C@@H](NC(=O)[C@@H](Cc1ccccc1)NC(=O)[C@H](N)Cc1ccccc1)C(=O)N[C@@H]1CCCCNC(=O)CNC(=O)[C@H](NC(=O)[C@@H](CC(C)C)NC(=O)[C@@H](Cc2ccccc2)NC(=O)[C@H](N)Cc2ccccc2)CCCCNC(=O)CNC1=O` [Compound 52, D-Phe-D-Phe-D-Leu-(D-Lys-GlyLactam)2-D-Leu-D-Phe-D-Phe] (I: H-[dF][dF][dL][dK]G / II: H-[dF][dF][dL][dK]G; amide I:4-II:C, I:C-II:4 (inferred); N-terminus assumed), the Emax in experiment [1] (setting [4]) was found to be 76%.
Consider `CC(C)C[C@@H](NC(=O)[C@@H](Cc1ccccc1)NC(=O)[C@H](N)Cc1ccccc1)C(=O)N[C@H](CCNC(=N)N)C(=O)NC1(C(=O)O)CCN(C(=O)[C@@H](CCNC(=N)N)NC(=O)[C@@H](CC(C)C)NC(=O)[C@@H](Cc2ccccc2)NC(=O)[C@H](N)Cc2ccccc2)CC1` [Compound 51, 1N,4N-bis-(D-Phe-D-Phe-D-Leu-D-Nar)-4amino-4carboxylic piperidine] (H-[dF][dF][dL][dAgb][Api]([dAgb-dL-dF-dF])-OH), for which the EC50 in experiment [1] (mKOR EC50 (nM), R1.G1 cells) was 95.8 nM. The Emax in experiment [1] (setting [4]) worked out at 60%.
In the case of `CC(C)C[C@@H](N)C(=O)N[C@H](CCCN)C(=O)N[C@@H](CCCCNC(=O)[C@@H](CCCN)NC(=O)[C@@H](CC(C)C)NC(=O)[C@@H](Cc1ccccc1)NC(=O)[C@H](N)Cc1ccccc1)C(=O)O` [Compound 39, D-Phe-D-Phe-D-Leu-D-Orn-[eLys(D-Orn-D-Leu-H)]-OH], the EC50 in experiment [1] (setting [5]) is 67.3 nM. The Emax in experiment [1] (setting [6]) is 35%.
On the same counts, the results for `CC(C)C[C@@H](N)C(=O)N[C@H](CCCN)C(=O)N[C@H](CCCCNC(=O)[C@@H](CCCN)NC(=O)[C@@H](CC(C)C)NC(=O)[C@@H](Cc1ccccc1)NC(=O)[C@H](N)Cc1ccccc1)C(=O)O` [Compound 46] are 0.12 nM and 95%.
As for `CNCCC[C@@H](NC(=O)[C@@H](CC(C)C)NC(=O)[C@@H](Cc1ccccc1)NC(=O)[C@H](N)Cc1ccccc1)C(=O)N1CCCNCC1` [Compound 23, D-Phe-D-Phe-D-Leu-(-Me)D-Orn-[homopiperazine amide]], the “mKOR Efficacy(%)” value in experiment [1] (R1.G1 cells) stood at 95%.
Same read-out and setting: in the case of `CC(C)C[C@@H](NC(=O)[C@@H](Cc1ccccc1)NC(=O)[C@H](N)Cc1ccccc1)C(=O)N[C@H](CCCNC(C)C)C(=O)N1CCCN(C(=N)N)CC1` [Compound 22, D-Phe-D-Phe-D-Leu-(δ-iPr)D-Orn-[4-Amidinohomopiperazine amide]] it was 97%.
Consider `CC(C)C[C@@H](NC(=O)[C@@H](Cc1ccccc1)NC(=O)[C@H](N)Cc1ccccc1)C(=O)N[C@H](CCCN)C(=O)NC1CCN(CC(N)=O)CC1` [Compound 15, D-Phe-D-Phe-D-Leu-D-Orn-[4-Amino-1-carboxymethyl-piperidine]-NH2], for which the “mKOR Efficacy(%)” value in experiment [1] (R1.G1 cells) was found to be 93%.
In the case of `CC(C)C[C@@H](NC(=O)[C@H](N)Cc1ccccc1)C(=O)N[C@H](CCCN)C(=O)N[C@H](CCCCNC(=O)[C@@H](CCCN)NC(=O)[C@@H](CC(C)C)NC(=O)[C@@H](Cc1ccccc1)NC(=O)[C@H](N)Cc1ccccc1)C(=O)O` [Compound 47], it took 0.05 nM to reach a half-maximal effect in experiment [1] (mKOR EC50 (nM), R1.G1 cells) (EC50). Moreover, the Emax in experiment [1] (setting [4]) was found to be 91%.
With `CC(C)C[C@@H](NC(=O)[C@@H](Cc1ccccc1)NC(=O)[C@H](N)Cc1ccccc1)C(=O)N[C@H](CCCN)C(=O)N[C@@H]1CN[C@H](C(=O)O)C1` [Compound 5, D-Phe-D-Phe-D-Leu-D-Orn-[(2S,4S)-4-Amino-pyrrolidine-2-carboxylic acid]-OH], in experiment [1] (R1.G1 cells), the “mKOR Efficacy(%)” value was 96%.
Turning to `CC(C)C[C@@H](NC(=O)[C@@H](Cc1ccccc1)NC(=O)[C@H](N)Cc1ccccc1)C(=O)N[C@H](CCCNC(C)C)C(=O)N1CCCNCC1` [Compound 24, D-Phe-D-Phe-D-Leu-(6-iPr)D-Orn-[homopiperazine amide]], the “mKOR Efficacy(%)” value in experiment [1] (R1.G1 cells) was found to be 96%.
`CC(C)C[C@@H](NC(=O)[C@@H](Cc1ccccc1)NC(=O)[C@H](N)Cc1ccccc1)C(=O)N[C@H](CNC(=N)N)C(=O)NC1(C(=O)O)CCN(C(=O)[C@@H](CNC(=N)N)NC(=O)[C@@H](CC(C)C)NC(=O)[C@@H](Cc2ccccc2)NC(=O)[C@H](N)Cc2ccccc2)CC1` [Compound 50] (H-[dF][dF][dL][dAgp][Api]([dAgp-dL-dF-dF])-OH): the midpoint of the response in experiment [1] (mKOR EC50 (nM), R1.G1 cells), the EC50, lay at 56.7 nM. Moreover, the Emax in experiment [1] (setting [4]) came to 77%.
`CCCC[C@@H](NC(=O)[C@@H](Cc1ccccc1)NC(=O)[C@H](N)Cc1ccccc1)C(=O)N[C@H](CCCNC(=N)N)C(=O)N1CCC[C@@H]1C(=O)O` [Compound 3, D-Phe-D-Phe-D-Nle-D-Arg-D-Pro-OH] (H-[dF][dF][dNle][dR][dP]-OH; N-terminus assumed): the “mKOR Efficacy(%)” value in experiment [1] (R1.G1 cells) came out at 88%.
In turn, `CC(C)C[C@@H](NC(=O)[C@@H](Cc1ccccc1)NC(=O)[C@H](N)Cc1ccccc1)C(=O)N[C@H](CCCN)C(=O)NCCCC[C@@H](NC(=O)[C@@H](CCCN)NC(=O)[C@@H](CC(C)C)NC(=O)[C@@H](Cc1ccccc1)NC(=O)[C@H](N)Cc1ccccc1)C(=O)O` [Compound 48] (H-[dF][dF][dL][dOrn][dK]([dOrn-dL-dF-dF])-OH) registered an EC50 in experiment [1] (mKOR EC50 (nM), R1.G1 cells) of 0.34 nM. The Emax in experiment [1] (setting [4]) was found to be 85%.
On to `CNCCC[C@@H](NC(=O)[C@@H](CC(C)C)NC(=O)[C@@H](Cc1ccccc1)NC(=O)[C@H](N)Cc1ccccc1)C(=O)N1CCCN(C(=N)N)CC1` [Compound 21, D-Phe-D-Phe-D-Leu-(δ-Me)D-Orn-[4-Amidinohomopiperazine amide]], for which, in experiment [1] (R1.G1 cells), the “mKOR Efficacy(%)” value turned out to be 97%.
For the compound `CC(C)C[C@@H](NC(=O)[C@@H](Cc1ccccc1)NC(=O)[C@H](N)Cc1ccccc1)C(=O)N[C@H](CCCNC(C)C)C(=O)NC1(C(=O)O)CCN(C(=O)[C@@H](CCCNC(C)C)NC(=O)[C@@H](CC(C)C)NC(=O)[C@@H](Cc2ccccc2)NC(=O)[C@H](N)Cc2ccccc2)CC1` [Compound 49], the Emax in experiment [1] (setting [4]) was determined as 50%.
